Results from ChEMBL document CHEMBL1201862, “PubChem BioAssay data set” (2004).
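Compound exposure: 48 hours, 5 concentrations, 96-well plates. Here, GI50 denotes the concentration required for 50% inhibition of growth.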 Calls of active or inactive are those of the source. Cut-off read from the data, not from the text of the source: active = GI50 up to about 1.1 µM and inactive = higher.

Experiments:
Test in all cases: NCI-60 cell line screen, 48 h
[1] = test system: KM12
[2] = test system: MDA-MB-435
[3] = test system: M14
[4] = test system: SK-MEL-5
[5] = test system: Hs-578T
[6] = test system: A549
[7] = test system: SNB-19
[8] = test system: SF-268
[9] = test system: CAKI-1
[10] = test system: Malme-3M
[11] = test system: OVCAR-8
[12] = test system: SN12C
[13] = test system: TK-10
[14] = test system: HCC 2998
[15] = test system: MDA-N
[16] = test system: NCI-H23
[17] = test system: PC-3
[18] = test system: NCI/ADR-RES
[19] = test system: A498
[20] = test system: HL-60
[21] = test system: SF-295
[22] = test system: SF-539
[23] = test system: SK-MEL-2
[24] = test system: EKVX
[25] = test system: COLO 205
[26] = test system: OVCAR-5
[27] = test system: UACC-62
[28] = test system: CCRF-CEM
[29] = test system: SK-OV-3
[30] = test system: LOX IMVI
[31] = test system: SR
[32] = test system: OVCAR-4
[33] = test system: 786-0
[34] = test system: HT-29
[35] = test system: NCI-H522
[36] = test system: IGROV-1
[37] = test system: HCT-116
[38] = test system: HCT-15
[39] = test system: ACHN
[40] = test system: DU-145
[41] = test system: RXF 393
[42] = test system: NCI-H226
[43] = test system: MDA-MB-231
[44] = test system: SW-620
[45] = test system: SK-MEL-28
[46] = test system: UACC-257
[47] = test system: OVCAR-3
[48] = test system: MCF7
[49] = test system: T47D
[50] = test system: SNB-75
[51] = test system: HOP-62
[52] = test system: NCI-H460
[53] = test system: MOLT-4
[54] = test system: HOP-92
[55] = test system: RPMI-8226
[56] = test system: U-251
[57] = test system: UO-31
[58] = test system: K562

## Cc1cc(-c2ccc(Cl)cc2)c(C#N)c(=S)n1C1OC(CO)C(O)C(O)C1O (centres undefined)
[1]
  GI50: > 100 µM (inactive)
[2]
  GI50: > 100 µM (inactive)
[3]
  GI50: > 100 µM (inactive)
[4]
  GI50: > 100 µM (inactive)
[5]
  GI50: > 100 µM (inactive)
[6]
  GI50: > 100 µM (inactive)
[7]
  GI50: > 100 µM (inactive)
[8]
  GI50: > 100 µM (inactive)
[9]
  GI50: > 100 µM (inactive)
[10]
  GI50: > 100 µM (inactive)
[11]
  GI50: > 100 µM (inactive)
[12]
  GI50: > 100 µM (inactive)
[13]
  GI50: > 100 µM (inactive)
[14]
  GI50: > 100 µM (inactive)
[15]
  GI50: > 100 µM (inactive)
[16]
  GI50: > 100 µM (inactive)
[17]
  GI50: > 100 µM (inactive)
[18]
  GI50: > 100 µM (inactive)
[19]
  GI50: > 100 µM (inactive)
[20]
  GI50: > 100 µM (inactive)
[21]
  GI50: > 100 µM (inactive)
[22]
  GI50: > 100 µM (inactive)
[23]
  GI50: > 100 µM (inactive)
[24]
  GI50: > 100 µM (inactive)
[25]
  GI50: > 100 µM (inactive)
[26]
  GI50: > 100 µM (inactive)
[27]
  GI50: > 100 µM (inactive)
[28]
  GI50: > 100 µM (inactive)
[29]
  GI50: > 100 µM (inactive)
[30]
  GI50: > 100 µM (inactive)
[31]
  GI50: > 100 µM (inactive)
[32]
  GI50: > 100 µM (inactive)
[33]
  GI50: > 100 µM (inactive)
[34]
  GI50: > 100 µM (inactive)
[35]
  GI50: > 100 µM (inactive)
[36]
  GI50: > 100 µM (inactive)
[37]
  GI50: > 100 µM (inactive)
[38]
  GI50: > 100 µM
[39]
  GI50: > 100 µM (inactive)
[40]
  GI50: > 100 µM (inactive)
[41]
  GI50: > 100 µM (inactive)
[42]
  GI50: > 100 µM (inactive)
[43]
  GI50: > 100 µM (inactive)
[44]
  GI50: > 100 µM (inactive)
[45]
  GI50: > 100 µM (inactive)
[46]
  GI50: > 100 µM (inactive)
[47]
  GI50: > 100 µM (inactive)
[48]
  GI50: > 100 µM (inactive)
[49]
  GI50: 99.8 µM (inactive)
[50]
  GI50: 20.1 µM (inactive)
[51]
  GI50: > 100 µM (inactive)
[52]
  GI50: > 100 µM (inactive)
[53]
  GI50: > 100 µM (inactive)

## O=C1CCC[C@H]2O[C@@H](COCc3ccccc3)C[C@@H]12
[1]
  GI50: > 100 µM (inactive)
[2]
  GI50: > 100 µM (inactive)
[3]
  GI50: > 100 µM (inactive)
[4]
  GI50: > 100 µM (inactive)
[54]
  GI50: > 100 µM (inactive)
[5]
  GI50: > 100 µM (inactive)
[6]
  GI50: > 100 µM (inactive)
[55]
  GI50: > 100 µM (inactive)
[7]
  GI50: > 100 µM (inactive)
[8]
  GI50: > 100 µM (inactive)
[9]
  GI50: > 100 µM (inactive)
[11]
  GI50: > 100 µM (inactive)
[12]
  GI50: > 100 µM (inactive)
[13]
  GI50: > 100 µM (inactive)
[15]
  GI50: > 100 µM (inactive)
[16]
  GI50: > 100 µM (inactive)
[17]
  GI50: > 100 µM (inactive)
[18]
  GI50: > 100 µM (inactive)
[19]
  GI50: > 100 µM (inactive)
[20]
  GI50: > 100 µM (inactive)
[21]
  GI50: > 100 µM (inactive)
[22]
  GI50: > 100 µM (inactive)
[23]
  GI50: > 100 µM (inactive)
[25]
  GI50: > 100 µM (inactive)
[26]
  GI50: > 100 µM (inactive)
[27]
  GI50: > 100 µM (inactive)
[56]
  GI50: > 100 µM (inactive)
[28]
  GI50: > 100 µM (inactive)
[29]
  GI50: > 100 µM (inactive)
[31]
  GI50: > 100 µM (inactive)
[32]
  GI50: > 100 µM (inactive)
[33]
  GI50: > 100 µM (inactive)
[34]
  GI50: > 100 µM (inactive)
[37]
  GI50: > 100 µM (inactive)
[38]
  GI50: > 100 µM
[39]
  GI50: > 100 µM (inactive)
[40]
  GI50: > 100 µM (inactive)
[42]
  GI50: > 100 µM (inactive)
[43]
  GI50: > 100 µM (inactive)
[44]
  GI50: > 100 µM (inactive)
[57]
  GI50: > 100 µM (inactive)
[45]
  GI50: > 100 µM (inactive)
[46]
  GI50: > 100 µM (inactive)
[47]
  GI50: > 100 µM (inactive)
[48]
  GI50: > 100 µM (inactive)
[49]
  GI50: > 100 µM (inactive)
[50]
  GI50: > 100 µM (inactive)
[58]
  GI50: > 100 µM (inactive)
[51]
  GI50: > 100 µM (inactive)
[52]
  GI50: > 100 µM (inactive)
[53]
  GI50: > 100 µM (inactive)

## COc1ccc(N(CN2C(=O)CCC2C(=O)O)C(C)=O)cc1 (centres undefined)
[1]
  GI50: > 100 µM (inactive)
[2]
  GI50: > 100 µM (inactive)
[3]
  GI50: > 100 µM (inactive)
[4]
  GI50: > 100 µM (inactive)
[54]
  GI50: > 100 µM (inactive)
[5]
  GI50: > 100 µM (inactive)
[6]
  GI50: > 100 µM (inactive)
[55]
  GI50: > 100 µM (inactive)
[7]
  GI50: > 100 µM (inactive)
[8]
  GI50: > 100 µM (inactive)
[9]
  GI50: > 100 µM (inactive)
[10]
  GI50: > 100 µM (inactive)
[11]
  GI50: > 100 µM (inactive)
[12]
  GI50: > 100 µM (inactive)
[13]
  GI50: > 100 µM (inactive)
[14]
  GI50: > 100 µM (inactive)
[15]
  GI50: > 100 µM (inactive)
[16]
  GI50: > 100 µM (inactive)
[17]
  GI50: > 100 µM (inactive)
[18]
  GI50: > 100 µM (inactive)
[19]
  GI50: > 100 µM (inactive)
[20]
  GI50: > 100 µM (inactive)
[21]
  GI50: > 100 µM (inactive)
[22]
  GI50: > 100 µM (inactive)
[23]
  GI50: > 100 µM (inactive)
[24]
  GI50: > 100 µM (inactive)
[25]
  GI50: > 100 µM (inactive)
[26]
  GI50: > 100 µM (inactive)
[27]
  GI50: > 100 µM (inactive)
[56]
  GI50: > 100 µM (inactive)
[28]
  GI50: > 100 µM (inactive)
[29]
  GI50: > 100 µM (inactive)
[30]
  GI50: > 100 µM (inactive)
[32]
  GI50: > 100 µM (inactive)
[33]
  GI50: > 100 µM (inactive)
[34]
  GI50: > 100 µM (inactive)
[35]
  GI50: > 100 µM (inactive)
[37]
  GI50: > 100 µM (inactive)
[38]
  GI50: > 100 µM
[39]
  GI50: > 100 µM (inactive)
[40]
  GI50: > 100 µM (inactive)
[42]
  GI50: > 100 µM (inactive)
[43]
  GI50: > 100 µM (inactive)
[44]
  GI50: > 100 µM (inactive)
[57]
  GI50: > 100 µM (inactive)
[45]
  GI50: > 100 µM (inactive)
[46]
  GI50: > 100 µM (inactive)
[47]
  GI50: > 100 µM (inactive)
[48]
  GI50: > 100 µM (inactive)
[49]
  GI50: > 100 µM (inactive)
[50]
  GI50: > 100 µM (inactive)
[58]
  GI50: > 100 µM (inactive)
[51]
  GI50: > 100 µM (inactive)
[52]
  GI50: > 100 µM (inactive)
[53]
  GI50: 65.5 µM (inactive)
